Laboratory results reported in patent publication US6413951B2, “20-fluoro-17(20)-vinyl steroids” (Aventis Pharmaceuticals, Inc., priority 2000, dated 2002).

Tests used:
[1] = system: cynomologous monkey C17,20 lyase; assay: In vitro C17,20 lyase assay (testicular microsomes); type: biochemical, cynomolgus monkey; parameters: unit of the concentration uncertain
Protocol: In vitro C17,20 lyase assay: Compounds were tested for inhibition of cynomologous monkey C17,20 lyase in vitro using microsomal preparations of the enzyme from testicular tissue. Testes were removed from anesthetized animals and flash frozen in liquid nitrogen. Microsomes were isolated as described in Schatzman et al., Anal. Biochem., 175, 219-226 (1988). The compound to be tested was dissolved in DMSO and diluted in 0.05M potassium phosphate buffer, pH 7.4, to give the desired concentrations of test compound, in an amount which contributes 0.1% v/v DMSO to the total assay volume. […] Control assays contained all components, including DMSO, but no test compound. All assays were performed in duplicate. […] The complete assay was incubated at 34° C. for 6 minutes. […] Radioactivity in the steriod peaks was measured using a Radiometric Model HS or Model A515 Flo-One detector. The enzyme activity for each assay was calculated from the conversion of substrate to products, and. the results expressed as percent inhibition of control.

human 5α-reductase = biological target: T1, human 5α-reductase (Homo sapiens, UniProt P31213); assay: In vitro 5α-reductase assay (prostate microsomes), human; type: biochemical; conditions: read-out: Km values of testosterone, multiple experiments
T1 construct: microsomal preparations of the 5α-reductase enzyme from human or laboratory animal prostate tissue; from tissue; host or cells: human prostate, microsomes
T1 sequence (P31213 1-254): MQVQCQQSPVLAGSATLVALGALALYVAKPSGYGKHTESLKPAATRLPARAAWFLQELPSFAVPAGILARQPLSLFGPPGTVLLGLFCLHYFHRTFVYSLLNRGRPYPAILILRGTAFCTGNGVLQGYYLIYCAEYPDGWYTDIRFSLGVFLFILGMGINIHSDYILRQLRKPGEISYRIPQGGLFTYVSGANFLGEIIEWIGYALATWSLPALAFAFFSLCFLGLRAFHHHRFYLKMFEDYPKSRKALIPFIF
Protocol: (§1) In vitro 5α-reductase assay: The activity of the present compounds as inhibitors of steroid 5α-reductase was determined using microsomal preparations of the 5α-reductase enzyme from human or laboratory animal prostate tissue. Specifically, prostate tissue was rapidly frozen in liquid nitrogen following removal from the human patient or from a cynomologus monkey (Macaca fascicularis) and subsequently stored at −80° C. The tissue was thawed, minced, and then homogenized in 5 volumes of 0.05M potassium phosphate buffer, pH 7.0, using a Tekmar homogenizer with 3×5 second bursts, followed by 10 strokes in a Dounce homogenizer. The homogenate was sonified in three pulses of 5 seconds each at 50% of maximum power. The homogenate was subjected to differential centrifugation with each supernatant successively centrifuged at 600×G and […] in a Beckman J21 centrifuge followed by 120,000×G in a Beckman Model L5-75 ultracentrifuge. The final pellet, containing the microsomal fraction, was reserved and resuspended in 0.05M potassium phosphate buffer, pH 7.0, containing 25% (w/v) glycerol equal to 1 mL per 3 g wet tissue. The suspension was divided into aliquots, flash frozen using dry ice in methanol, and stored at −80° C. […] Protein concentration was determined by the BioRad dye binding method (BioRad, Richmond, Calif., USA). […]

[2] = system: cynomolgus monkey 5α-reductase; conditions: read-out: Km values of testosterone, multiple experiments
Protocol: as §1

rat 5α-reductase = conditions: read-out: Km values of testosterone, multiple experiments
[3] = Conc. 1 (unit uncertain), Preinc. 0 min
[4] = Conc. 1 (unit uncertain), Preinc. 40 min
[5] = Conc. 10 (unit uncertain), Preinc. 0 min
[6] = Conc. 10 (unit uncertain), Preinc. 40 min

Row | Structure (SMILES) | % Inhibition [1, 3] [%] | % Inhibition [1, 4] [%] | % Inhibition [1, 5] [%] | % Inhibition [1, 6] [%] | melting point [°C] | Km (human 5α-reductase) [µM] | Km [2] [µM] | Km (rat 5α-reductase) [µM]
1 | C[C@]12CC[C@H](O)CC1=CC[C@@H]1[C@@H]2CC[C@]2(C)/C(=C(\F)CO)CC[C@@H]12 [Z CH2OH, (17Z)-20-Fluoropregna-5,17(20)-diene-3β,21-diol] | 96 | 94 | 100 | 100 | 198 to 203 | – | – | –
2 | C[C@]12CC[C@H]3[C@@H](CCC4=CC(=O)CC[C@@]43C)[C@@H]1CC[C@@H]2O [testosterone, 17β-hydroxyandrost-4-en-3-one] | – | – | – | – | – | 0.125 to 0.273 | 0.025 to 0.091 | 0.74 to 0.9
3 | C/C(F)=C1\CC[C@H]2[C@@H]3CC=C4C[C@@H](O)CC[C@]4(C)[C@H]3CC[C@]12C [Z CH3, (17Z)-20-Fluoropregna-5,17(20)-dien-3β-ol] | 49 | 72 | 78 | 94 | 153 to 155 | – | – | –
4 | C[C@]12CC[C@H](O)CC1=CC[C@@H]1[C@@H]2CC[C@]2(C)/C(=C(/F)CO)CC[C@@H]12 [E CH2OH, (17E)-20-Fluoropregna-5,17(20)-diene-3β,21-diol] | 63 | 61 | 85 | 87 | 214 to 216 | – | – | –
5 | C/C(F)=C1/CC[C@H]2[C@@H]3CC=C4C[C@@H](O)CC[C@]4(C)[C@H]3CC[C@]12C [E CH3, (17E)-20-fluoropregna-5,17(20)-dien-3β-ol] | 54 | 60 | 88 | 94 | 129 to 133 | – | – | –
